Reference: PMC2854129, “Spadin, a Sortilin-Derived Peptide, Targeting Rodent TREK-1 Channels: A New Concept in the Antidepressant Drug Design” (PLoS Biology, 2010)

What was measured:
mice [1] = assay: Forced Swimming Test (FST), mice; assay type: in vivo, mouse
Procedure: Porsolt forced swim test (FST). Mice (Janvier, France) were placed individually in cylinders (height: 30 cm, diameter: 15 cm) filled with 12 cm deep water (temperature: 22 ±1°C) for 6 min. The total period of immobility was recorded during the last 4 min.

TREK-1 [2] = assay: Whole-cell patch-clamp, cultured hippocampal pyramidal neurons; assay type: cell-based, mouse
Procedure: Cortical neurons were prepared from 14 old mouse embryos, whereas hippocampal neurons were prepared from newborn mice. Briefly, dissected brain areas were dissociated and neurons were plated on polylysine-treated 35 or 60 mm dishes and maintained in culture in Neurobasal medium supplemented with B27, Glutamax, and antibiotics for 2 to 3 wk before to be used for electrophysiological or biochemical experiments.
Supplementary file pbio.1000355.s004.tif: Figure S4 Effects of spadin on cultured pyramidal neurons from hippocampus. (A) Cultured pyramidal neuron from hippocampus, with on top, the patch-clamp pipette. Neurons were chosen according to their morphology. (B) Current recorded in response to ramps of potential obtained in the various conditions indicated (aa, arachidonic acid: 10 µM; Spadin: 1 µM; Fluoxetine: 20 µM). Neurons were recorded in the whole-cell configuration of the patch-clamp technique. In voltage-clamp, ramps of potential from −90 mV to 70 mV were applied every 10 s. The % variation of the current amplitude was always measured at −50 mV. The currents were recorded in response to such ramps in control conditions and in the presence of a cocktail of potassium blockers suitable to isolate the TREK currents (10 mM tetraethyl ammonium (TEA), 3 mM 4-aminopyridine (4-AP), 50 nM charybdotoxin, 10 µM glibenclamide, 100 nM apamin). […] The blocks were reversible. (C) Time course of spadin and fluoxetine effects. Applications are indicated by the horizontal bars. (2.03 MB TIF) Click here for additional data file.

mice [3] = assay: Tail Suspension Test (TST), mice; assay type: in vivo, mouse; details: 4-d fluoxetine 3 mg/kg, vs saline, p>0.05
Procedure: Tail suspension test (TST). Mice were suspended by the tail. […] The immobility time was recorded during a 6 min test session.

mice [4] = assay: Novelty Suppressed Feeding test (NSF), mice; assay type: in vivo, mouse; details: 4 d; spadin i.v. 10^−6 M, fluoxetine i.p. 3 mg/kg; vs saline
Procedure: Novelty–suppressed feeding test (NSF). NSF paradigm is a conflict test that elicits competing motivations: the drive to eat and the fear of venturing into the center of a bright arena. Latency to begin eating is used as an index of anxiety- and depression- like behavior. After 4 day treatment (saline or spadin, i.v.) and 24 hours food-deprivation, mice were presented with a food pellet placed in the center of a brightly plastic box (50 x 50 x 20 cm). Latency to begin eating was measured as previously described.

[5] = tested on: BrdU-positive cells in mouse hippocampus; assay: Hippocampal neurogenesis (BrdU labeling); assay type: in vivo
Procedure: Twenty-four hours after the injection of BrdU (120 mg per kg of body weight in a 300 µl bolus), mice were euthanized and transcardially perfused with 4% cold paraformaldehyde. Serial sections of the brains were cut (40 µm) throughout the entire hippocampus on a vibratome (Leica). Every sixth section throughout the hippocampus was processed for BrdU or DCX immunohistochemistry, as previously described. For each immunodetection, slides were first incubated overnight at 4°C with a mouse monoclonal anti-BrdU antibody (1∶200; Becton-Dickinson) or a goat anti-DCX (1∶400; Santa Cruz Laboratories). For chromogenic immunodetection, sections were then incubated for 1 h in biotin-conjugated species-specific secondary antibodies (1∶100; Vector Laboratories) followed by a peroxidase-avidin complex solution according to the manufacturer's protocol. The peroxidase activity of immune complexes was visualized with DAB staining using the VectaStain ABC kit (Vector Laboratories). […] All BrdU-labeled cells in the granular cell layer and SGZ were counted in each section (n = 10 and 5 mice per group) at 400× and 1,000× magnification under a light microscope (Olympus) by an experimenter blinded to the study code. […]

mice [6] = details: mouse, in vivo, ip
Procedure: Supplementary file pbio.1000355.s006.tif: Figure S6 Mouse locomotion activity. To determine whether spadin induced a change in locomotor activity, mice (n = 8 per group) were injected with the saline solution or spadin (10^−5M in 100 µl bolus, i.p.) 30 min before starting the test session. Locomotor activity was monitored individually for 24 h using an infrared photobeam activity monitoring system (Imetronic, Pessac, France), which measured consecutive horizontal beam breaks. Testing was in transparent plastic cages (43×2 0×20 cm^3) with fresh bedding in a grid of 8 cm horizontal infrared beams. Locomotor activity was defined as breaking of consecutive photobeams. Mice were given 1 h habituation session before being treated with spadin or saline. Movements were recorded and totalized for each 5 min period during the first hour and then by 10 min time sections for the next 23 h. Six periods were pooled to obtain data for 1 h of time. Different movements were monitored: the coming-and-going between the back and the front of the cage, climbing, and other movements in the back or the front of the cage. Data are the mean value of 8 animals per condition, bars represent SEM. Mice were kept under standard laboratory conditions: 12∶12 light-dark cycle with free access to food and water during the experiment. […] (0.53 MB TIF) Click here for additional data file.

TREK-1 channel = assay: Whole-cell patch-clamp, hippocampal CA3 pyramidal neurons in brain slices, wild-type mice; assay type: cell-based, mouse; details: no aa; spadin n = 8, fluoxetine n = 5; mean ± SEM; unpublished data
[7] = tested on: corticosterone (HPA axis); assay: Stress-induced serum corticosterone levels; assay type: in vivo, mouse; details: fluoxetine i.p. 3 mg/kg, 30 min after 10 min tube restraint, vs saline; n = 10
Procedure: Mice were individually housed for at least 12 h before blood sample collection. Serum samples, collected in the morning, were obtained by retroorbital puncture before and 30 min after the end of a 10 min tube restraint. Levels of corticosterone were measured by radioimmunoassay using a commercially available kit (MP Biomedicals).

C13NJ cells = assay: C13NJ wound-healing (cell migration) assay; assay type: cell-based; details: 10 nM NT in serum free medium; without spadin, or (spadin line) with 1 µM spadin; unstimulated 4%±1%
Excerpt: A cell-free zone was created within a semi-confluent monolayer of microglial culture by scratching cells off with a pipette tip. We analyzed by time-lapse microscopy how cells repopulated the cell-free zone, as already described. Supplementary file pbio.1000355.s001.tif: Figure S1 […] wound-healing assay. A cell-free zone was created within a semi-confluent monolayer with a pipette tip. We analyzed by time-lapse microscopy how cells repopulated the cell-free zone. The 100% of migrating cells was calculated by stimulation of cell migration with 10% of Fetal Calf Serum (FCS). (0.13 MB TIF) Click here for additional data file.

TREK-1 [8] = molecular target: T1, TREK-1 (Mus musculus, UniProt P97438); assay: Competition binding, 125I-spadin, TREK-1 transfected COS-7 cell homogenates; set-up: expressed in transfected cells; host or cells: COS-7 cells, DEAE-dextran transfection; details: competition, 10^−10 to 10^−5M
T1 sequence (P97438 1-426): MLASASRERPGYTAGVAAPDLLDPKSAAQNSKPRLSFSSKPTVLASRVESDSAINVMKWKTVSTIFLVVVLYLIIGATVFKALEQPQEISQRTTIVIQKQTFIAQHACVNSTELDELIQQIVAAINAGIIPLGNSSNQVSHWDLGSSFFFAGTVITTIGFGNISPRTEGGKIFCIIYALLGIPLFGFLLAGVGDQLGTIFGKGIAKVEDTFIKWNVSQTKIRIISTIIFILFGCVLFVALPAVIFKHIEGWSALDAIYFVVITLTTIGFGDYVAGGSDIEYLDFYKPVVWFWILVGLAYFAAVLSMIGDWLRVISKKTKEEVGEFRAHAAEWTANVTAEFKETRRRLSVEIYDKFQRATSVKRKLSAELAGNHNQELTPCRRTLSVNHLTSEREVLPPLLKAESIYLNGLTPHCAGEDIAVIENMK
Procedure: For competition experiments, homogenates from TREK-1 transfected COS-7 or C13NJ cells were incubated with 0.2 nM ^125I-spadin or ^125I-NT (200,000 cpm in 250 µl) iodinated and purified as previously described. Incubations were performed in 50 mM Tris-HCl, pH 7.4 containing 0.1% BSA in the presence of increasing concentrations of non-radioactive spadin or NT (10^−10 to 10^−5M). Incubations were terminated by addition of 2 ml of ice-cold binding buffer followed by filtration through cellulose acetate filters (Sartorius, Göttingen, Germany) and washing twice with 2 ml of ice-cold buffer. Radioactivity on filters was counted with a gamma-counter.

mice [9] = assay: Elevated plus-maze; assay type: in vivo, mouse; details: spadin i.p. 10^−5 M or diazepam i.p. 0.5 mg/kg, 30 min before test, vs saline; n = 10
Excerpt: Elevated plus-maze. The apparatus consisted of two open and two enclosed arms of the same size (45x5 cm) with walls 15 cm high. The arms, constructed of black acrylic, radiate from a common central platform (5x5 cm) to form a plus sign. Open arms were arranged opposite to one another, as were closed arms. The maze was elevated to a height of 45 cm above floor level. Each mouse was placed in the central platform facing one of the open arms. The number of entries into the open and closed arms and the time spent on the open and closed arms were recorded during a 5 min test period. Time spent in the unprotected open arms as well as the number of entries in open arms in relation to the total of arm entries are used as experimental indices of anxiety.

mice [10] = assay: Light/dark exploration test; assay type: in vivo, mouse; details: spadin i.p. 10^−5 M or diazepam i.p. 0.5 mg/kg, 30 min before test, vs saline; n = 10
Procedure: Light/dark exploration. The apparatus consisted of a cage (25X40X20 cm) divided into two compartments by a black partition containing a small opening that allows mouse to move from one compartment to the other. One compartment, comprising […] of the surface area, was made of white plastic and was brightly illuminated. The adjoining smaller compartment was black and dark. Mice were placed in the white compartment and allowed to move freely between the two chambers for 5 minutes. The number of transitions between the two compartments, time spent in the white chamber, and latency to the first transition were recorded. Mice tend to avoid the white compartment. Thus the measures of exploration in this area (time and entrances) were used as experimental indices of anxiety.

mice [11] = assay: Staircase test; assay type: in vivo, mouse; details: spadin i.p. 10^−5 M or diazepam i.p. 0.5 mg/kg, 30 min before test, vs saline; n = 10
Procedure: Stair case test. The apparatus comprised an enclosed staircase consisted of five identical steps (2.5 cm in height X 11 cm in width X 7.5 cm in length), each made of black plastic. The height of the walls was constant (12.5 cm above the stairs) along the entire length of the staircase. Each mouse was placed individually on the floor of the staircase with its back to the staircase. A step was considered climbed only if the mouse placed all four paws on it. Rearing was recorded when the mouse rose on its hind legs either on the step or against the wall. The number of steps ascended and the number of rearings made in a 3-min period were recorded. Results were expressed as ratio of rearing/step numbers.

CNCCC(Oc1ccc(C(F)(F)F)cc1)c1ccccc1 (stereo not shown) [fluoxetine]
effect of subchronic treatment (mice [1]; 4-d fluoxetine 3 mg/kg, FST, vs saline, p>0.05): no effect | reduction of time of immobility, chronic treatment (mice [1]; 15 d, i.v. once a day, spadin 10^−6 M, fluoxetine 1 mg/kg, vs saline p<0.001, n = 8): around 30% | block of arachidonic acid-evoked current (TREK-1 [2]; 20 µM fluoxetine, 10 µM aa, at −50 mV): fully blocked | reversibility of block (TREK-1 [2]; spadin 1 µM and fluoxetine 20 µM): reversible | effect of subchronic treatment (mice [3]): no effect | latency to feed (mice [4]): no effect | number of BrdU-positive cells ([5]; 4-d fluoxetine): no effect on neurogenesis | number of BrdU-positive cells ([5]; 15 d treatment, spadin 10^−5 M or fluoxetine, n = 5): significant increase in the number of BrdU-positive cells | locomotor activity (mice [6]): Neither spadin nor fluoxetine had any effect on mouse locomotion | inhibition of current recorded in presence of potassium blockers, peptide/drug alone (TREK-1 channel): 13.0%±3.8% | reduction of stress-induced increase in corticosterone levels [7]: 59.1%

neurotensin [NT]
number of cells that migrated, % of migrating cells in presence of 10% FCS (C13NJ cells): 35.1%±2.3% | displacement of 125I-spadin binding (TREK-1 [8]): unable to displace the binding of ^125I-spadin

CN1C(=O)CN=C(c2ccccc2)c2cc(Cl)ccc21 [diazepam]
time spent in the open arms (mice [9]): significantly reduced the time spent into the aversive open arms | light/dark transitions (mice [10]): significantly induced an increase in the number of light/dark transitions | rearing/step numbers ratio (mice [11]): decrease of the rearing/step numbers ratio
